{"source": "the supplement of paper PMC10307832", "assay_in_all_cases": "relative viability (nuclei count vs DMSO), 5 days (fraction); higher = more cells survive", "key": {"[1]": {"system": "NCI-H1666", "how_it_was_run": "(§1)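 Medians of duplicate plates are given as relative viability. That measure is the nuclei count in treated wells divided by the count in vehicle wells. Counts were taken on 4× images of lung cancer cell lines in 1536-well plates, 5 days after pin-tool dosing the day after seeding with one drug alone or a fixed anchor-drug dose plus five library-drug doses (not always all listed) in √10 steps.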"}, "[2]": {"system": "COR-L 105", "how_it_was_run": "as §1"}, "[3]": {"system": "A-427", "how_it_was_run": "as §1"}, "[4]": {"system": "NCI-H358", "how_it_was_run": "as §1"}, "[5]": {"system": "HOP-62", "how_it_was_run": "as §1"}, "[6]": {"system": "NCI-H460", "how_it_was_run": "as §1"}, "[7]": {"system": "NCI-H2170", "how_it_was_run": "as §1"}, "[8]": {"system": "LC-2-ad", "how_it_was_run": "as §1"}, "[9]": {"system": "HCC-366", "how_it_was_run": "as §1"}, "[10]": {"system": "SW 900", "how_it_was_run": "as §1"}, "[11]": {"system": "NCI-H2009", "how_it_was_run": "as §1"}, "[12]": {"system": "HCC-78", "how_it_was_run": "as §1"}, "[13]": {"system": "SK-LU-1", "how_it_was_run": "as §1"}, "[14]": {"system": "NCI-H2085", "how_it_was_run": "as §1"}, "[15]": {"system": "UMC-11", "how_it_was_run": "as §1"}, "[16]": {"system": "NCI-H1793", "how_it_was_run": "as §1"}, "[17]": {"system": "EPLC-272H", "how_it_was_run": "as §1"}, "[18]": {"system": "LU99A", "how_it_was_run": "as §1"}, "[19]": {"system": "LXF-289", "how_it_was_run": "as §1"}, "[20]": {"system": "NCI-H1944", "how_it_was_run": "as §1"}, "[21]": {"system": "NCI-H1915", "how_it_was_run": "as §1"}}}
{"smiles": "Cc1sc2c(c1C)C(c1ccc(Cl)cc1)=N[C@@H](CC(=O)OC(C)(C)C)c1nnc(C)n1-2", "note": "[JQ1] + COc1cc2c(Oc3ccc(NC(=O)C4(C(=O)Nc5ccc(F)cc5)CC4)cc3F)ccnc2cc1OCCCN1CCOCC1 [Foretinib] (partner 0.25 µM)", "values": [{"measurement": "relative viability", "setting": "[1]; first compound 0.04 µM", "value": 0.855}, {"measurement": "relative viability", "setting": "[1]; first compound 0.1265 µM", "value": 0.924}, {"measurement": "relative viability", "setting": "[1]; first compound 0.4 µM", "value": 0.818}, {"measurement": "relative viability", "setting": "[1]; first compound 1.265 µM", "value": 0.634}, {"measurement": "relative viability", "setting": "[1]; first compound 4 µM", "value": 0.653}, {"measurement": "relative viability", "setting": "[2]; first compound 0.04 µM", "value": 0.794}, {"measurement": "relative viability", "setting": "[2]; first compound 0.1265 µM", "value": 0.604}, {"measurement": "relative viability", "setting": "[2]; first compound 0.4 µM", "value": 0.656}, {"measurement": "relative viability", "setting": "[2]; first compound 1.265 µM", "value": 0.219}, {"measurement": "relative viability", "setting": "[2]; first compound 4 µM", "value": 0.272}, {"measurement": "relative viability", "setting": "[3]; first compound 0.04 µM", "value": 1.01}, {"measurement": "relative viability", "setting": "[3]; first compound 0.1265 µM", "value": 0.988}, {"measurement": "relative viability", "setting": "[3]; first compound 0.4 µM", "value": 0.913}, {"measurement": "relative viability", "setting": "[3]; first compound 1.265 µM", "value": 0.908}, {"measurement": "relative viability", "setting": "[3]; first compound 4 µM", "value": 0.636}, {"measurement": "relative viability", "setting": "[4]; first compound 0.04 µM", "value": 0.686}, {"measurement": "relative viability", "setting": "[4]; first compound 0.1265 µM", "value": 0.83}, {"measurement": "relative viability", "setting": "[4]; first compound 0.4 µM", "value": 0.685}, {"measurement": "relative viability", "setting": "[4]; first compound 1.265 µM", "value": 0.259}, {"measurement": "relative viability", "setting": "[4]; first compound 4 µM", "value": 0.309}, {"measurement": "relative viability", "setting": "[5]; first compound 0.04 µM", "value": 0.982}, {"measurement": "relative viability", "setting": "[5]; first compound 0.1265 µM", "value": 0.848}, {"measurement": "relative viability", "setting": "[5]; first compound 0.4 µM", "value": 0.348}, {"measurement": "relative viability", "setting": "[5]; first compound 1.265 µM", "value": 0.241}, {"measurement": "relative viability", "setting": "[5]; first compound 4 µM", "value": 0.124}, {"measurement": "relative viability", "setting": "[6]; first compound 0.04 µM", "value": 0.901}, {"measurement": "relative viability", "setting": "[6]; first compound 0.1265 µM", "value": 0.932}, {"measurement": "relative viability", "setting": "[6]; first compound 0.4 µM", "value": 0.628}, {"measurement": "relative viability", "setting": "[6]; first compound 1.265 µM", "value": 0.12}, {"measurement": "relative viability", "setting": "[6]; first compound 4 µM", "value": 0.112}, {"measurement": "relative viability", "setting": "[7]; first compound 0.04 µM", "value": 1.03}, {"measurement": "relative viability", "setting": "[7]; first compound 0.1265 µM", "value": 0.928}, {"measurement": "relative viability", "setting": "[7]; first compound 0.4 µM", "value": 0.837}, {"measurement": "relative viability", "setting": "[7]; first compound 1.265 µM", "value": 0.762}, {"measurement": "relative viability", "setting": "[7]; first compound 4 µM", "value": 0.626}, {"measurement": "relative viability", "setting": "[8]; first compound 0.04 µM", "value": 0.809}, {"measurement": "relative viability", "setting": "[8]; first compound 0.1265 µM", "value": 0.625}, {"measurement": "relative viability", "setting": "[8]; first compound 0.4 µM", "value": 0.538}, {"measurement": "relative viability", "setting": "[8]; first compound 1.265 µM", "value": 0.359}, {"measurement": "relative viability", "setting": "[8]; first compound 4 µM", "value": 0.266}, {"measurement": "relative viability", "setting": "[9]; first compound 0.04 µM", "value": 0.994}, {"measurement": "relative viability", "setting": "[9]; first compound 0.4 µM", "value": 0.827}, {"measurement": "relative viability", "setting": "[9]; first compound 1.265 µM", "value": 0.359}, {"measurement": "relative viability", "setting": "[9]; first compound 4 µM", "value": 0.266}, {"measurement": "relative viability", "setting": "[10]; first compound 0.04 µM", "value": 0.699}, {"measurement": "relative viability", "setting": "[10]; first compound 0.1265 µM", "value": 1.06}, {"measurement": "relative viability", "setting": "[10]; first compound 0.4 µM", "value": 0.377}, {"measurement": "relative viability", "setting": "[10]; first compound 1.265 µM", "value": 0.224}, {"measurement": "relative viability", "setting": "[10]; first compound 4 µM", "value": 0.188}, {"measurement": "relative viability", "setting": "[11]; first compound 0.04 µM", "value": 1.06}, {"measurement": "relative viability", "setting": "[11]; first compound 0.1265 µM", "value": 0.801}, {"measurement": "relative viability", "setting": "[11]; first compound 0.4 µM", "value": 0.786}, {"measurement": "relative viability", "setting": "[11]; first compound 1.265 µM", "value": 0.413}, {"measurement": "relative viability", "setting": "[11]; first compound 4 µM", "value": 0.352}, {"measurement": "relative viability", "setting": "[12]; first compound 0.04 µM", "value": 0.557}, {"measurement": "relative viability", "setting": "[12]; first compound 0.1265 µM", "value": 0.506}, {"measurement": "relative viability", "setting": "[12]; first compound 0.4 µM", "value": 0.495}, {"measurement": "relative viability", "setting": "[12]; first compound 1.265 µM", "value": 0.509}, {"measurement": "relative viability", "setting": "[12]; first compound 4 µM", "value": 0.453}, {"measurement": "relative viability", "setting": "[13]; first compound 0.04 µM", "value": 0.848}, {"measurement": "relative viability", "setting": "[13]; first compound 0.1265 µM", "value": 0.613}, {"measurement": "relative viability", "setting": "[13]; first compound 0.4 µM", "value": 0.787}, {"measurement": "relative viability", "setting": "[13]; first compound 1.265 µM", "value": 0.306}, {"measurement": "relative viability", "setting": "[13]; first compound 4 µM", "value": 0.153}, {"measurement": "relative viability", "setting": "[14]; first compound 0.04 µM", "value": 0.855}, {"measurement": "relative viability", "setting": "[14]; first compound 0.1265 µM", "value": 0.821}, {"measurement": "relative viability", "setting": "[14]; first compound 0.4 µM", "value": 0.578}, {"measurement": "relative viability", "setting": "[14]; first compound 1.265 µM", "value": 0.428}, {"measurement": "relative viability", "setting": "[14]; first compound 4 µM", "value": 0.37}, {"measurement": "relative viability", "setting": "[15]; first compound 0.04 µM", "value": 0.954}, {"measurement": "relative viability", "setting": "[15]; first compound 0.1265 µM", "value": 0.663}, {"measurement": "relative viability", "setting": "[15]; first compound 0.4 µM", "value": 0.372}, {"measurement": "relative viability", "setting": "[15]; first compound 1.265 µM", "value": 0.286}, {"measurement": "relative viability", "setting": "[15]; first compound 4 µM", "value": 0.238}, {"measurement": "relative viability", "setting": "[16]; first compound 0.04 µM", "value": 0.65}, {"measurement": "relative viability", "setting": "[16]; first compound 0.1265 µM", "value": 0.788}, {"measurement": "relative viability", "setting": "[16]; first compound 0.4 µM", "value": 0.713}, {"measurement": "relative viability", "setting": "[16]; first compound 1.265 µM", "value": 0.728}, {"measurement": "relative viability", "setting": "[16]; first compound 4 µM", "value": 0.483}, {"measurement": "relative viability", "setting": "[17]; first compound 0.04 µM", "value": 0.639}, {"measurement": "relative viability", "setting": "[17]; first compound 0.1265 µM", "value": 0.508}, {"measurement": "relative viability", "setting": "[17]; first compound 0.4 µM", "value": 0.454}, {"measurement": "relative viability", "setting": "[17]; first compound 1.265 µM", "value": 0.247}, {"measurement": "relative viability", "setting": "[17]; first compound 4 µM", "value": 0.191}, {"measurement": "relative viability", "setting": "[18]; first compound 0.04 µM", "value": 0.821}, {"measurement": "relative viability", "setting": "[18]; first compound 0.1265 µM", "value": 0.85}, {"measurement": "relative viability", "setting": "[18]; first compound 0.4 µM", "value": 0.559}, {"measurement": "relative viability", "setting": "[18]; first compound 1.265 µM", "value": 0.374}, {"measurement": "relative viability", "setting": "[18]; first compound 4 µM", "value": 0.304}, {"measurement": "relative viability", "setting": "[19]; first compound 0.04 µM", "value": 0.955}, {"measurement": "relative viability", "setting": "[19]; first compound 0.1265 µM", "value": 0.978}, {"measurement": "relative viability", "setting": "[19]; first compound 0.4 µM", "value": 0.762}, {"measurement": "relative viability", "setting": "[19]; first compound 1.265 µM", "value": 0.758}, {"measurement": "relative viability", "setting": "[19]; first compound 4 µM", "value": 0.69}, {"measurement": "relative viability", "setting": "[20]; first compound 0.04 µM", "value": 0.797}, {"measurement": "relative viability", "setting": "[20]; first compound 0.1265 µM", "value": 0.792}, {"measurement": "relative viability", "setting": "[20]; first compound 0.4 µM", "value": 0.513}, {"measurement": "relative viability", "setting": "[20]; first compound 1.265 µM", "value": 0.441}, {"measurement": "relative viability", "setting": "[20]; first compound 4 µM", "value": 0.425}, {"measurement": "relative viability", "setting": "[21]; first compound 0.04 µM", "value": 1.09}, {"measurement": "relative viability", "setting": "[21]; first compound 0.1265 µM", "value": 1.03}, {"measurement": "relative viability", "setting": "[21]; first compound 0.4 µM", "value": 0.732}, {"measurement": "relative viability", "setting": "[21]; first compound 1.265 µM", "value": 0.653}, {"measurement": "relative viability", "setting": "[21]; first compound 4 µM", "value": 0.449}]}
